Activity calls are given as the source filed them.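 How the source made its calls: active means compounds whose mean EC50, the dose giving half the maximal reporter activation, is at or below a set limit; inactive means the rest.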
Target: CHO-CHOP luciferase reporter, UPR activation, luminescence
Experiment: activators of PERK-eIF2a-CHOP UPR arm, confirmation, CHO-CHOP cells, luciferase luminescence (AID 489024);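 further: compounds added alone to reporter cells with no tunicamycin stress co-treatment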

Structure (SMILES)	EC50
O=C1NC(=S)NC(=O)C1=Cc1ccc(Br)s1	> 80 µM (inactive)
COc1cc2nc(NC(=O)c3ccc(Cl)cc3)sc(=O)c2cc1OC	inactive
CCOC(=O)C1=C(CCl)NC(=O)NC1c1ccc2c(c1)OCO2 (stereo not drawn)	> 80 µM (inactive)
CCOC(=O)CSc1cccc2cccnc12	11.4 µM
COc1ccc2cc(C)c3nnc(SCC(=O)Nc4nc(-c5ccc(F)cc5)cs4)n3c2c1	10.7 µM
COc1ccc(C2c3ccc4ccccc4c3Oc3ncn(CCCN(C)C)c(=N)c32)cc1 (stereo not drawn)	6.82 µM
Cn1nc(C(F)(F)F)c(/C=N/OC(=O)c2ccccc2)c1SCc1ccccc1Cl	inactive
CN1C(=O)/C(=C/c2cccn2-c2ccc3ccccc3c2)C(=O)NC1=S	11.7 µM
CCOC(=O)C1=C(Cc2ccc(Cl)cc2)C(=O)c2ccccc2C1=O	> 80 µM (inactive)
CC(=O)/C(=C/c1ccccc1)C(=O)Nc1ccccc1C	inactive
COc1ccc(N=c2oc3c(OC)cccc3cc2C(=O)NCc2ccco2)cc1OC	> 80 µM (inactive)
S=C1SCN(CC2CC2)CN1CC1CC1	inactive
COC(=O)c1ccc(COc2ccccc2/C=C(\C#N)C(=O)Nc2c(C)cccc2C)cc1	11.8 µM
O=C(CCl)N1N=C(c2cccs2)CC1c1ccco1 (stereo not drawn)	> 80 µM (inactive)
COc1ccc2c(c1OC)C(=O)OC2Nc1nc(-c2ccccc2)cs1 (stereo not drawn)	> 80 µM (inactive)
Cc1cc(NC(=O)CCS(=O)(=O)c2nc(-c3ccccc3)cc(C(F)(F)F)n2)no1	7.4 µM
Oc1c(C(c2ccccc2Cl)N2CCCC2)ccc2cccnc12 (stereo not drawn)	5.76 µM
COc1ccc2c(c1)CCc1c(C(=O)Nc3cc(C)n(Cc4ccc(Cl)cc4)n3)noc1-2	14 µM
O=C(Nc1ccc(S(=O)(=O)N2CCCC2)cc1)c1ccc([N+](=O)[O-])o1	0.81 µM
Cc1cc(N/N=C/c2ccccc2[N+](=O)[O-])nc(-n2nc(C)cc2C)n1	7.44 µM
NC(N)=N/N=C/c1ccc(N(c2ccccc2)c2ccccc2)cc1	> 80 µM (inactive)
CCCCCCCCCCn1c2c(c(=N)c3c1CCC3)CCC2	14.1 µM
Cc1c(C#N)c(NC(=O)CCl)n(Cc2cccs2)c1C	> 80 µM (inactive)
O=C(NCc1cccnc1)/C(=C/c1ccc(-c2cccc(Cl)c2)o1)S(=O)(=O)c1ccccc1	10.4 µM
COc1cc(C(=O)Oc2c(CN3CCOCC3)cc(Cl)c3cccnc23)cc(OC)c1OC	inactive
C/C(=C\c1ccc(N(C)C)cc1)[N+](=O)[O-]	9.76 µM
O=S(=O)(Nc1cccc2cccnc12)c1ccccc1	4.18 µM

Structure (SMILES)	EC50
Oc1c(CN2CCN(c3ccc(F)cc3)CC2)cc(Cl)c2cccnc12	14 µM
Cc1cc(C)c2c(c1)/C(=c1/sc3n(c1=O)CN(c1ccccc1)CN=3)C(=O)N2	11.6 µM
Nc1nnnn1/N=C/C(Br)=C/c1ccccc1	2.22 µM
Cc1nc(NC(=O)/C=C/c2ccccc2)n[nH]1	> 80 µM (inactive)
COC(=O)C(=Cc1ccc(OCc2ccc([N+](=O)[O-])cc2)c(OC)c1)C(=O)OC	5.43 µM
CN1/C(=C\C(=O)COC(=O)c2ccc(O)c(O)c2)C(C)(C)c2ccccc21	6.67 µM
CN(C)C(=S)N=Nc1[nH]c2ccccc2c1O	6.88 µM
Cc1ccc(NC(=O)c2ccc([N+](=O)[O-])o2)cc1S(=O)(=O)N1CCOCC1	11.8 µM
O=C(COC(=O)c1ccccc1C(=O)c1ccc(Cl)c([N+](=O)[O-])c1)NC1CCCCCC1	> 80 µM (inactive)
O=C(Cn1cc(/C=C\[N+](=O)[O-])c2ccccc21)Nc1ccccc1	7.5 µM
CC1=C(/C=C/C(C)=C/C=C/C(C)=C/C(=O)Nc2ccc(O)cc2)C(C)(C)CCC1	14.3 µM
Fc1ccc(NC(=S)Nc2nccs2)cc1	inactive
COc1ccc2c(C(=O)CCl)c[nH]c2c1	6.36 µM
COc1ccc(/C=C/c2nc3cc(-c4ccccc4)ccc3o2)cc1O	12.7 µM
COc1ccc(N=C2S/C(=C\c3ccc(N4CCOCC4)o3)C(=O)N2CCc2c[nH]c3ccccc23)cc1	18.4 µM
S=C1SCN(CCN2CCOCC2)CN1Cc1ccccc1	10.8 µM
Cc1cnc(NC(=O)c2cc(S(=O)(=O)N(C)C)ccc2N2CCCC2)s1	6.42 µM
CC1=CC(C)(C)Nc2ccc(OC(=O)CN3C(=O)C4CCCCC4C3=O)cc21 (stereo not drawn)	8.07 µM
Oc1ccc(/C=N/Nc2cc(N3CCOCC3)nc(N3CCOCC3)n2)cc1O	> 80 µM (inactive)
C/C(=N\NC(=O)C(c1ccccc1)c1ccccc1)c1ccccn1	16 µM
O=C(CCl)Nc1cccc(S(=O)(=O)NC2=NCCCCC2)c1	17.8 µM
O=C(Nc1ccc2oc(-c3ccc4ccccc4c3)nc2c1)c1ccc2c(c1)OCCO2	19.8 µM
CC1CCC/C=C/C(=O)c2c(O)cc(O)cc2CC(=O)O1 (stereo not drawn)	> 80 µM (inactive)
CCOC(=O)N1CCN(S(=O)(=O)c2ccc(C(=O)Nc3nc4c(s3)CC(C)CC4)cc2)CC1 (stereo not drawn)	> 80 µM (inactive)
COc1ccc(/C=C/C(=O)c2ccc(C(=O)/C=C/c3ccc(OC)c(OC)c3)cc2)cc1OC	> 80 µM (inactive)
c1ccc(CSC2=NNC(c3ccccn3)S2)cc1 (stereo not drawn)	4.29 µM
